According to patent US8784793B2, “Conformable solvent-based bandage and coating material” (Rochal Industries LLP, priority 2005, dated 2014):

Assay: Rate of polymerization of BCA on a glass slide as a function of HMDS concentration
Assay type: physicochemical
Protocol: Additionally, a test was conducted for the rate of polymerization as a function of solvent concentration in order to assess the time interval for heat generation upon the polymerization of the cyanoacrylate monomer. The mixture included n-butyl cyanoacrylate in the presence and absence of hexamethyldisiloxane. […] Utilizing a glass slide containing BCA with no HMDS as the control, polymerization of this neat system occurred in 25 seconds. When a 20% BCA solution in HMDS was studied, utilizing the same amount of BCA as in the control, polymerization occurred in 40 seconds, and decreased the polymerization rate by 60%. […] Thus, the addition of the non-stinging, non-irritating volatile hexamethyldisiloxane solvent caused polymerization of the cyanoacrylate to occur at a slower rate than that reported by U.S. Pat. No. 6,010,714, allowing the heat of polymerization to be more evenly dissipated. […] The use of the HMDS would thus facilitate rapid coverage of a wound site.

Compound: C=C(C#N)C(=O)OCCCC [BCA, n-Butyl cyanoacrylate]
- flow over the glass surface: tended to bead
- time in which polymerization occurred (same amount of BCA as control): 25 s
